Reference: paper PMC7549094 (Journal of Medicinal Chemistry, 2020)

Columns and labels:
hr PR ag = target: T1, hr PR ag (Homo sapiens, UniProt P06401); assay: receptor profile (Table S4); type: biochemical
T1 sequence (P06401 1-933): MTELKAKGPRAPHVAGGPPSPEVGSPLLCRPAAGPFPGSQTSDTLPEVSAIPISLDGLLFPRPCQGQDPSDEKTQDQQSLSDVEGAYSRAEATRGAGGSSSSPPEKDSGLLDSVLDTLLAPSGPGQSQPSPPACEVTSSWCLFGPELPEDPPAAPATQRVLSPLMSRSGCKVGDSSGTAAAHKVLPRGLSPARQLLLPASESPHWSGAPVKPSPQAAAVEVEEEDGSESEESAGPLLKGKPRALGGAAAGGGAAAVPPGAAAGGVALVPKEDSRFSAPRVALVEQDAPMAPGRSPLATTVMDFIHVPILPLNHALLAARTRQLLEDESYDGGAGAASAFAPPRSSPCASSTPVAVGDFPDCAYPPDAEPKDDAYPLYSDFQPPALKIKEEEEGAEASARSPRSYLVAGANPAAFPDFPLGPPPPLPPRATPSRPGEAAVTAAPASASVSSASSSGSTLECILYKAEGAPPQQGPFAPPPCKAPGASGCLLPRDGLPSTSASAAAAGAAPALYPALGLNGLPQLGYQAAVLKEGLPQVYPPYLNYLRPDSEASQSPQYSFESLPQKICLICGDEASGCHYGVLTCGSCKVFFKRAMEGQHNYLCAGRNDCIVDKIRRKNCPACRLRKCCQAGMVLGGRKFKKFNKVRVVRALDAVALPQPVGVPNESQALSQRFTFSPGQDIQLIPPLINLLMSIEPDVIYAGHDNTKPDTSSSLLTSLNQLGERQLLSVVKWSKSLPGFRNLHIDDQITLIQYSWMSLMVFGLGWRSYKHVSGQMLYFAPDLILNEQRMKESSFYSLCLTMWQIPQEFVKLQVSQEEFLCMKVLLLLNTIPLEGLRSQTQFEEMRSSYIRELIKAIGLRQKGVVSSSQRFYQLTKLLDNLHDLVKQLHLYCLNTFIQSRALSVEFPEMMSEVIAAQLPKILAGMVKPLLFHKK

hr PPARg antag = target: T2, hr PPARg antag (Homo sapiens, UniProt P37231); assay: receptor profile (Table S4); type: biochemical
T2 sequence (P37231 1-505): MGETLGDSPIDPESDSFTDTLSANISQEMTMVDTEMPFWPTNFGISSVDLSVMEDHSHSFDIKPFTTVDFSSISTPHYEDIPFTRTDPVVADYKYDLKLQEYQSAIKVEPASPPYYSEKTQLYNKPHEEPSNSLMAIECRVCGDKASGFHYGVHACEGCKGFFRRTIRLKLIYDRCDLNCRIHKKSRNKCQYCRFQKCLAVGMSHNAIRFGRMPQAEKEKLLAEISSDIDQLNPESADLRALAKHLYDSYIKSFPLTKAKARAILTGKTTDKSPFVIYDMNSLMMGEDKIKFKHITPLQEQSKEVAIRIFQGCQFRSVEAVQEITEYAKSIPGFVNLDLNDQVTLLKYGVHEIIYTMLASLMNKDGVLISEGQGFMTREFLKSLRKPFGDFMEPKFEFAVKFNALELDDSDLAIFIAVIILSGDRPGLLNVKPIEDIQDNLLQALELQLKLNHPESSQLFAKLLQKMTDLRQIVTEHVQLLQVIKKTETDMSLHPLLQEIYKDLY

hr 5-HT2B antag = hr 5-HT2B antag (Homo sapiens, UniProt P41595); assay: receptor profile (Table S4); type: biochemical
hr 5-HT2B antag, sequence (P41595 whole entry): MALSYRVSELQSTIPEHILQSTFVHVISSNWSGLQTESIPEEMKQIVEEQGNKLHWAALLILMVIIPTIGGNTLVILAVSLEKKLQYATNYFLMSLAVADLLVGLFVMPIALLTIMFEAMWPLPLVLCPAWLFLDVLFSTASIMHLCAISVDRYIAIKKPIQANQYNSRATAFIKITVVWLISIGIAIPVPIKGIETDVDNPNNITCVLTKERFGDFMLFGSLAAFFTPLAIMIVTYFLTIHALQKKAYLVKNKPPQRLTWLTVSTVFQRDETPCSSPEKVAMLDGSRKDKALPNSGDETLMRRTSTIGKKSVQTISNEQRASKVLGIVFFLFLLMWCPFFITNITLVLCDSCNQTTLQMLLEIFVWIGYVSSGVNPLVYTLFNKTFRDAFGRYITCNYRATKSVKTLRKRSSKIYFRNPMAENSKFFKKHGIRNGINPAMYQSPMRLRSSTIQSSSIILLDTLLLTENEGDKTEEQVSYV

hr Al2A antag = target: T3, hr Al2A antag (Homo sapiens, UniProt P08913); assay: receptor profile (Table S4); type: biochemical
T3 sequence (P08913 1-465): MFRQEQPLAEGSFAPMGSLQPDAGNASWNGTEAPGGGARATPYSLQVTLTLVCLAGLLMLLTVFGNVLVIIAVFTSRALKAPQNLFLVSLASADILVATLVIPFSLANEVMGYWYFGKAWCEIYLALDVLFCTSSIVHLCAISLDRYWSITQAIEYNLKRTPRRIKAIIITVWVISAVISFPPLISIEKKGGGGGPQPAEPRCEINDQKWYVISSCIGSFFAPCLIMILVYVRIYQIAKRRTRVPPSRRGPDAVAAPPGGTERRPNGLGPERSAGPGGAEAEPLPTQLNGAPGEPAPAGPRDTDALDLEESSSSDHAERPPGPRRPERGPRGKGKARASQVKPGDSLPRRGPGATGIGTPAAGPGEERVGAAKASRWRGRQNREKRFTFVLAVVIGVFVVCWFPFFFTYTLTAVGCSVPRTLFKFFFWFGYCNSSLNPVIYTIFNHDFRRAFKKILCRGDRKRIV

hr PR antag = target: T4, hr PR antag (Homo sapiens, UniProt P06401); assay: receptor profile (Table S4); type: biochemical
T4 sequence (P06401 1-933): T1 sequence (P06401 1-933)

[1] = in vivo micronucleus (MNT) study in rat
hr ACES = hr ACES (Homo sapiens, UniProt P22303); assay: receptor profile (Table S4); type: biochemical
hr ACES, sequence (P22303 32-614): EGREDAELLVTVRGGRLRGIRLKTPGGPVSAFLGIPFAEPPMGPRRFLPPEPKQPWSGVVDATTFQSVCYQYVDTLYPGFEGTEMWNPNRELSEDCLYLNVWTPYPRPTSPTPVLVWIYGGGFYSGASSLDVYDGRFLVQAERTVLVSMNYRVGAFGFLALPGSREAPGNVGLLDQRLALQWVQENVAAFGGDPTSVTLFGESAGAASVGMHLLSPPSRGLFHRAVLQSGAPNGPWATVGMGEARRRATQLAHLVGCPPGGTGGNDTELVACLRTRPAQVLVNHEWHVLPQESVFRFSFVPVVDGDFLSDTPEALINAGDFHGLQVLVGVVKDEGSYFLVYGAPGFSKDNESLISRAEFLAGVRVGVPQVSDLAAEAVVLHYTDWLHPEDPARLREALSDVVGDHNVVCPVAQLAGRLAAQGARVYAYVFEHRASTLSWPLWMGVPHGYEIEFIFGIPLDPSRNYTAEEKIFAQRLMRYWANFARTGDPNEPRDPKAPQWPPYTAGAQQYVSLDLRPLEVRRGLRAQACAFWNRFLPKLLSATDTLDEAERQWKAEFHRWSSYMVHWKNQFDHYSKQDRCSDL

hr Al1A ag = target: T5, hr Al1A ag (Homo sapiens, UniProt P35348); assay: receptor profile (Table S4); type: biochemical
T5 sequence (P35348 1-466): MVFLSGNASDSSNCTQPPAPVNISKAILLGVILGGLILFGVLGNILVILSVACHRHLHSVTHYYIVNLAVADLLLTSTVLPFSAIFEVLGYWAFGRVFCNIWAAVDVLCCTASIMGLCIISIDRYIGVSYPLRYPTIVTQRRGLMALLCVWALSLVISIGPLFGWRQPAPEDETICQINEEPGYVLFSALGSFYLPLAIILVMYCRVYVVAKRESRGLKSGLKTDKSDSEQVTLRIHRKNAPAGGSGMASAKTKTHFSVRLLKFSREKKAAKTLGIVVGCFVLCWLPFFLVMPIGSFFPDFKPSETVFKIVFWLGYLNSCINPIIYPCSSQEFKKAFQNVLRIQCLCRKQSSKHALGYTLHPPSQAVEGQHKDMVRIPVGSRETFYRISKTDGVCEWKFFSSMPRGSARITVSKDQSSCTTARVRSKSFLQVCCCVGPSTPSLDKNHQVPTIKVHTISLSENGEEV

`Cc1nc(C)c(C(=O)Nc2ccc(F)c(-c3nc4ncc(-c5ncccc5C)cn4n3)c2)o1` [compound 1, N-(4-Fluoro-3-(6-(3-methylpyridin-2-yl)-[1,2,4]triazolo[1,5-a]pyrimidin-2-yl)phenyl)-2,4-dimethyloxazole-5-carboxamide] showed an EC50/IC50 (hr PR ag; hr PR ag) of over 30 µM, an inhibition at 10 µM (hr PR ag; read-out: % inh/act @ 10 µM) of -2% and an inhibition at 30 µM (hr PR ag; read-out: % inh/act @ 30 µM) of 0%. The EC50/IC50 (hr PPARg antag; hr PPARg antag) was over 30 µM, the inhibition at 10 µM (hr PPARg antag; read-out: % inh/act @ 10 µM) was -5% and the inhibition at 30 µM (hr PPARg antag; read-out: % inh/act @ 30 µM) was 16%. For the same compound, the EC50/IC50 (hr 5-HT2B antag; hr 5-HT2B antag) was over 30 µM, the inhibition at 10 µM (hr 5-HT2B antag; read-out: % inh/act @ 10 µM) was 22% and the inhibition at 30 µM (hr 5-HT2B antag; read-out: % inh/act @ 30 µM) was 24%. It also gave an EC50/IC50 (hr Al2A antag; hr Al2A antag) of over 30 µM, an inhibition at 10 µM (hr Al2A antag; read-out: % inh/act @ 10 µM) of 20% and an inhibition at 30 µM (hr Al2A antag; read-out: % inh/act @ 30 µM) of 22%. The EC50/IC50 (hr PR antag; hr PR antag) was over 30 µM, the inhibition at 10 µM (hr PR antag; read-out: % inh/act @ 10 µM) was -11% and the inhibition at 30 µM (hr PR antag; read-out: % inh/act @ 30 µM) was -5%. For the same compound, the “% inh/act @ 10 µM” value (h Nic(cns)) was 20%, the “% inh/act @ 30 µM” value (h Nic(cns)) was 24% and the “micronucleus (MNT), risk of clastogenicity” value [1] was “did not indicate a risk”. It also gave an EC50/IC50 (hr ACES; hr ACES) of over 30 µM, an inhibition at 10 µM (hr ACES; read-out: % inh/act @ 10 µM) of 16% and an EC50/IC50 (hr Al1A ag; hr Al1A ag) of over 30 µM. The inhibition at 10 µM (hr Al1A ag; read-out: % inh/act @ 10 µM) was 0% and the inhibition at 30 µM (hr Al1A ag; read-out: % inh/act @ 30 µM) was 1%.
